Our source for the IC50 and MIC values is patent US12258342B2, “Class of DNA gyrase and/or topoisomerase IV inhibitors with activity against gram-positive and gram-negative bacteria” (Univerza v Ljubljani, priority 2018, dated 2025).

For orientation: IC50 means the concentration that inhibits the measured activity by half. A low value points to greater potency in that assay.

≈ marks a conversion by molar mass, not a printed value.

Assay [1] addresses E. coli DNA gyrase (Escherichia coli (strain K12), UniProt P0AES6). In words: DNA gyrase inhibition assay (Inspiralis, streptavidin-coated plates). The class given is biochemical. As to the method: Inhibitory activities for compounds of the present invention were determined on E. coli and S. aureus DNA gyrase and topoisomerase IV in an assay from Inspiralis on streptavidin-coated 96-well microtiter plates from Thermo scientific Pierce. […] After washing off the unbound oligonucleotide, the enzyme test was performed. […] Reaction solutions were incubated at 37° C. for 30 min. After that, the TF buffer (50 mM NaOAc with pH 5.0, 50 mM NaCl and 50 mM MgCl2) was added to terminate the enzymatic reaction. After additional incubation for 30 min at rt, during which biotin-oligonucleotide-plasmid triplex was formed, the unbound plasmid was washed off using TF buffer and SybrGOLD in T10 buffer (10 mM Tris HCl with pH 8.0 and 1 mM EDTA) was added. […] GraphPad Prism 6.0 software was used to calculate the IC50 values. The result is given as the average value of three independent measurements. […] Chemoth.

The test system of assay [2] is S. aureus ATCC 29213. The experiment in a line: Microbroth dilution MIC (CLSI). The following applies: Staphylococcus aureus, ATCC29213, read-out: MIC (μg/mL) S. aureus ATCC 29213. A general note: Dilution methods test growth across graded concentrations, often in twofold steps.
Assay [3] deals with E. faecalis ATCC 29212. The experiment in a line: Microbroth dilution MIC (CLSI). The conditions noted are these: Enterococcus faecalis, ATCC29212, read-out: MIC (μg/mL) E. faecalis ATCC 29212.
In assay [4] the test system is E. coli ATCC 25922. The experiment in a line: Microbroth dilution MIC (CLSI). The conditions noted are these: Escherichia coli, ATCC25922, read-out: MIC (μg/mL) E. coli ATCC 25922.

In the case of `Cc1[nH]c(C(=O)N(c2nc3ccc(C(=O)O)cc3s2)C(C)C)c(Cl)c1Cl` [Example 41, 2-(3,4-dichloro-N-isopropyl-5-methyl-1H-pyrrole-2-carboxamido)benzo[d]thiazole-6-carboxylic acid], 320 ± 70 nM corresponded to half-maximal inhibition in assay [1] (IC50). Also, the figures for the MIC in assay [2], in assay [3] and in assay [4] were 32 µg/mL (≈ 77.6 µM), 32 µg/mL (≈ 77.6 µM) and at least 32 µg/mL, respectively.
With `Cc1[nH]c(C(=O)N(c2nc3ccc(C(=O)O)cc3s2)C2CC2)c(Cl)c1Cl` [Example 42, 2-(3,4-dichloro-N-cyclopropyl-5-methyl-1H-pyrrole-2-carboxamido)benzo[d]thiazole-6-carboxylic acid], in assay [1], it took 24 ± 1 nM to reach half-maximal inhibition (IC50). In addition, the MIC in assay [2] was 2 µg/mL (≈ 4.87 µM); in assay [3], 0.25 µg/mL (≈ 0.609 µM); in assay [4], over 64 µg/mL.
Turning to `O=C(O)c1cc(OCc2cc(=O)c(O)c[nH]2)c2nc(NC(=O)c3cc(Br)c(Br)[nH]3)sc2c1` [Example 38, 2-(4,5-dibromo-1H-pyrrole-2-carboxamido)-4-((5-hydroxy-4-oxo-1,4-dihydropyridin-2-yl)methoxy)benzo[d]thiazole-6-carboxylic acid], the MIC in assay [2], in assay [3] and in assay [4] was over 64 µg/mL each time.
Molecule `Cc1[nH]c(C(=O)Nc2nc3c(OCc4ccccc4)cc(C(N)=O)cc3s2)c(Cl)c1Cl` [Example 28, 4-(benzyloxy)-2-(3,4-dichloro-5-methyl-1H-pyrrole-2-carboxamido)benzo[d]thiazole-6-carboxamide] registered a half-maximal inhibitory concentration (IC50) in assay [1] of 11 ± 2 nM. Moreover, the MIC in assay [2], in assay [3] and in assay [4] was over 64 µg/mL in each case.
For `CCN(C(=O)c1[nH]c(C)c(Cl)c1Cl)c1nc2ccc(C(=O)O)cc2s1` [Example 43, 2-(3,4-dichloro-N-ethyl-5-methyl-1H-pyrrole-2-carboxamido)benzo[d]thiazole-6-carboxylic acid], in assay [1], half-maximal inhibition (IC50) was put at 7.2 ± 2 nM. The MIC is 0.13 µg/mL (≈ 0.326 µM) in assay [2], 0.13 µg/mL (≈ 0.326 µM) in assay [3] and 32 µg/mL (≈ 80.3 µM) in assay [4].
As for `Cc1[nH]c(C(=O)Nc2nc3ccc(C(=O)O)cc3s2)c(Cl)c1Br` [Example 45, 2-(4-bromo-3-chloro-5-methyl-1H-pyrrole-2-carboxamido) benzo[d]thiazole-6-carboxylic acid], the 50% inhibitory concentration (IC50) in assay [1] is under 5 nM. Moreover, the MIC in assay [2] is 0.13 µg/mL (≈ 0.314 µM); in assay [3], 0.0625 µg/mL (≈ 0.151 µM); in assay [4] it was over 64 µg/mL.
The corresponding values for `COC(=O)c1cc(N2CC[C@H](NC(=O)OC(C)(C)C)C2)c2nc(NC(=O)c3[nH]c(C)c(Cl)c3Cl)sc2c1` [Example 33, methyl (S)-4-(3-((tert-butoxycarbonyl)amino)pyrrolidin-1-yl)-2-(3,4-dichloro-5-methyl-1H-pyrrole-2-carboxamido)benzo[d]thiazole-6-carboxylate] are over 10000 nM, at least 32 µg/mL, at least 32 µg/mL and at least 32 µg/mL.
`Cc1[nH]c(C(=O)Nc2nc3c(N4CC[C@H](NC(=O)OC(C)(C)C)C4)cc(C(=O)O)cc3s2)c(Cl)c1Cl` [Example 35, (S)-4-(3-((tert-butoxycarbonyl)amino)pyrrolidin-1-yl)-2-(3,4-dichloro-5-methyl-1H-pyrrole-2-carboxamido)benzo[d]thiazole-6-carboxylic acid]: the IC50 in assay [1] is under 5 nM. Also, the MIC in assay [2] is 0.25 µg/mL (≈ 0.451 µM); in assay [3] it was 0.0312 µg/mL (≈ 0.0564 µM); in assay [4] it was at least 32 µg/mL.
With `Cc1[nH]c(C(=O)Nc2nc3c(OCc4ccccc4)cc(-c4nnn[nH]4)cc3s2)c(Cl)c1Cl` [Example 29, N-(4-(benzyloxy)-6-(1H-tetrazol-5-yl)benzo[d]thiazol-2-yl)-3,4-dichloro-5-methyl-1H-pyrrole-2-carboxamide], the MIC is 4 µg/mL (≈ 7.99 µM) in assay [2], 0.125 µg/mL (≈ 0.25 µM) in assay [3] and over 64 µg/mL in assay [4].
